From ChEMBL document CHEMBL1909046, “DrugMatrix in vitro pharmacology data”

What was measured:
Calcitonin receptor = target: T1, Calcitonin receptor (Homo sapiens, UniProt P30988); format: cell membranes, Membrane; details: t47d; note: in other assays of this panel Not Active means under 50% inhibition at 10 µM
T1 sequence (P30988 whole entry): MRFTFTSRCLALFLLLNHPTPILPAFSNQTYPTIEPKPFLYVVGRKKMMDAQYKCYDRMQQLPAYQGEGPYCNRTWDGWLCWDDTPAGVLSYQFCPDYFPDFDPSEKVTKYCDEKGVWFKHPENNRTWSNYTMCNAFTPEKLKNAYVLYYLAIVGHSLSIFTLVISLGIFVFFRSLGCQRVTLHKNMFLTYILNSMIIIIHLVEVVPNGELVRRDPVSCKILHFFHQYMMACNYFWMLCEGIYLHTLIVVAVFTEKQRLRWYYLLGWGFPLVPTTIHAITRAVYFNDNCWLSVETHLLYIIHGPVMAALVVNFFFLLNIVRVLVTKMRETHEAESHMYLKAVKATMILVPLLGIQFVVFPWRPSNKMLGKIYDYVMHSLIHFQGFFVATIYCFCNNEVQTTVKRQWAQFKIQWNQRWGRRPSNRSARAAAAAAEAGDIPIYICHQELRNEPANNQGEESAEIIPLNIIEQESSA

[1] = target: 5-hydroxytryptamine receptor 4 (Cavia porcellus, UniProt O70528); format: cell membranes, Dunkin-Hartley, Striatum, Membrane; note: in other assays of this panel Not Active means under 50% inhibition at 10 µM
[2] = target: T2, C-X-C chemokine receptor type 2 (Homo sapiens, UniProt P25025); format: cell membranes, Membrane; details: cho-k1; note: in other assays of this panel Not Active means under 50% inhibition at 10 µM
T2 sequence (P25025 whole entry): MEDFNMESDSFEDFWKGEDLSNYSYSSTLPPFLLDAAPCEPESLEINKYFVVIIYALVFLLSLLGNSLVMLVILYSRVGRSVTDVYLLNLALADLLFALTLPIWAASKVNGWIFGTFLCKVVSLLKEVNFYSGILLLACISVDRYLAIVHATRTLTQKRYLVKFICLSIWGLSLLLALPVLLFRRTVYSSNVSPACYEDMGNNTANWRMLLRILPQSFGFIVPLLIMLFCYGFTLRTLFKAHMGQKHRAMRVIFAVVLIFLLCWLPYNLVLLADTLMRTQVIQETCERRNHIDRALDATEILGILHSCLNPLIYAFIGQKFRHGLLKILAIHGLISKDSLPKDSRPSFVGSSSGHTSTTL

[3] = target: T3, Muscarinic acetylcholine receptor M2 (Homo sapiens, UniProt P08172); format: cell membranes, CHO-K1, Membrane; details: cho-k1; note: in other assays of this panel Not Active means under 50% inhibition at 10 µM
T3 sequence (P08172 whole entry): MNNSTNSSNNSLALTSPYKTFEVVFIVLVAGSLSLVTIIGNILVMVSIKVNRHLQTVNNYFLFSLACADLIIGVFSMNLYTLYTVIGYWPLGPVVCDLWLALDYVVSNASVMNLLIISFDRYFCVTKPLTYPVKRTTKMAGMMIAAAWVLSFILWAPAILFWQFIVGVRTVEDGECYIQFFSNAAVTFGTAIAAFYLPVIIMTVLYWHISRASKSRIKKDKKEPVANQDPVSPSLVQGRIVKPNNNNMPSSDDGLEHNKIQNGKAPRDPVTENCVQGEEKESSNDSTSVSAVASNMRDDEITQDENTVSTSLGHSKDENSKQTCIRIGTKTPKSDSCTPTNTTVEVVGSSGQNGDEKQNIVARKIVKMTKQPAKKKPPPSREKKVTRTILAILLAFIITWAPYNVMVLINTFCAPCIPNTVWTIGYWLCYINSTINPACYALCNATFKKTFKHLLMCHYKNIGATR

Mu-type opioid receptor = Mu-type opioid receptor (Homo sapiens, UniProt P35372); test: DRUGMATRIX: Opiate mu (OP3, MOP) radioligand binding (ligand: [3H] Diprenorphine); format: cell membranes, CHO-K1, Membrane; details: cho-k1; Not Active = under 50% inhibition at 10 µM
Interstitial collagenase = target: T4, Interstitial collagenase (Homo sapiens, UniProt P03956); test: biochemical; format: tissue-based, Rheumatoid synovial fibroblasts
T4 sequence (P03956 whole entry): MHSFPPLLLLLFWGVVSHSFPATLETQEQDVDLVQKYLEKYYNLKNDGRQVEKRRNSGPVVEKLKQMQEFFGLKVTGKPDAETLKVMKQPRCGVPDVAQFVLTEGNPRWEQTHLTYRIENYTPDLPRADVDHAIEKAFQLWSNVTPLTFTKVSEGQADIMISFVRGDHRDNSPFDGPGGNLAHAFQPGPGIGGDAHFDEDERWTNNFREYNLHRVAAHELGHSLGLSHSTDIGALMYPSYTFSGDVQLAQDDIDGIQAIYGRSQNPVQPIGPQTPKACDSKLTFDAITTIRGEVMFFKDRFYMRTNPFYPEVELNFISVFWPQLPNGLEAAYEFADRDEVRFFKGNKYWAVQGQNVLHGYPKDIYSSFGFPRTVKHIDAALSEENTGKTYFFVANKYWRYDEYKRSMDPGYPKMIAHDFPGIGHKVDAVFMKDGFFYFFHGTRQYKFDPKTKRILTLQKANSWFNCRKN

[4] = target: Protein kinase C alpha type (Homo sapiens, UniProt P17252); format: cell-based; details: sf9
Estrogen receptor = target: T5, Estrogen receptor (Homo sapiens, UniProt P03372); details: sf9; note: in other assays of this panel Not Active means under 50% inhibition at 10 µM
T5 sequence (P03372 whole entry): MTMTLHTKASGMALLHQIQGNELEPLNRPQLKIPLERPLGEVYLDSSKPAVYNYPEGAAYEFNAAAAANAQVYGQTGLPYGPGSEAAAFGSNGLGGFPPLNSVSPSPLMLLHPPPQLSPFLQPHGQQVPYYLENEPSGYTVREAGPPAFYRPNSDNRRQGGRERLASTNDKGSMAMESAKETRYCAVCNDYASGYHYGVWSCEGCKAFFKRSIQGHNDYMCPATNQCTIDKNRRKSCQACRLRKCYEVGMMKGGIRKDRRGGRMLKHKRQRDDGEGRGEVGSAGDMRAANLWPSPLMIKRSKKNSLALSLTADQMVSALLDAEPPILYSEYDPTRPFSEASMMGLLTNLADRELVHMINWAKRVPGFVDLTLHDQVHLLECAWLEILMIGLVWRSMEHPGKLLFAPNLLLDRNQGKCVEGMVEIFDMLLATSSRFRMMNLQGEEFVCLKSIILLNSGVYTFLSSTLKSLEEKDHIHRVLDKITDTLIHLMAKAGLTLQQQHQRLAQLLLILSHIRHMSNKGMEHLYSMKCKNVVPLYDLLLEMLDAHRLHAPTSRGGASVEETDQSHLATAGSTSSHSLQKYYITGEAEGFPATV

Measured: IC50

Sequence of 5-hydroxytryptamine receptor 4 (O70528 whole entry): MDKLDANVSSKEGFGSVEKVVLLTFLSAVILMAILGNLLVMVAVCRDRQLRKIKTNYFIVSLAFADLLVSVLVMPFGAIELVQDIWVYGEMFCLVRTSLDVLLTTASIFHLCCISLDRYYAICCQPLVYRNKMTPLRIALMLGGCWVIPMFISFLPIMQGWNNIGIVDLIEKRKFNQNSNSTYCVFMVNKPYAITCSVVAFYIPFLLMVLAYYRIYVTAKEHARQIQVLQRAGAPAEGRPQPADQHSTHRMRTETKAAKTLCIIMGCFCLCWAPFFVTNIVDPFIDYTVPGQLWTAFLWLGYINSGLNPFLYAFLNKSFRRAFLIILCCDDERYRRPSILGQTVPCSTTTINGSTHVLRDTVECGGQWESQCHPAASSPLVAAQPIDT
Sequence of Mu-type opioid receptor (P35372 whole entry): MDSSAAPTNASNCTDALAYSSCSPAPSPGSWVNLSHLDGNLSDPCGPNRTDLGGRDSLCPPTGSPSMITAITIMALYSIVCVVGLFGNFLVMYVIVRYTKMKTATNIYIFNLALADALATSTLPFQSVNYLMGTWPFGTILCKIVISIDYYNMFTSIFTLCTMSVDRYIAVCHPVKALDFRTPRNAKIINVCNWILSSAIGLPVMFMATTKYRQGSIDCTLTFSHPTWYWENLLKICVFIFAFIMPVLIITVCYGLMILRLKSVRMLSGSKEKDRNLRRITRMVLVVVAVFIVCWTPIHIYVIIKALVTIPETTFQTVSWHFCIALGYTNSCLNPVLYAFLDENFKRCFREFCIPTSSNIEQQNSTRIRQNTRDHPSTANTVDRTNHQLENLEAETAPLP

C[C@@H]1CC[C@@]2(OC1)O[C@H]1[C@@H](O)[C@H]3[C@@H]4CC[C@H]5C[C@@H](O[C@@H]6O[C@H](CO)[C@H](O[C@@H]7O[C@H](CO)C(O)[C@H](O[C@@H]8OC[C@@H](O)[C@H](O)[C@H]8O)[C@H]7O[C@@H]7O[C@H](CO)[C@H](O)[C@H](O[C@@H]8O[C@H](CO)[C@@H](O)[C@H](O)[C@H]8O)[C@H]7O)[C@H](O)[C@H]6O)[C@H](O)C[C@]5(C)[C@H]4CC[C@]3(C)[C@H]1[C@@H]2C (stereo partly specified) [DIGITONIN]
Not Active: all assays above

O=C1CN=C(c2ccccc2Cl)c2cc([N+](=O)[O-])ccc2N1 [CLONAZEPAM]
Not Active: all assays above
